Measurements reported in PMC10755728, “Inhibitors of the Elastase LasB for the Treatment of Pseudomonas aeruginosa Lung Infections” (ACS Central Science, 2023).
Where two headings read alike, the source gives them in different places.

Key:
LasB [1] = molecular target: T1, LasB (Pseudomonas aeruginosa, UniProt Q02RJ6); assay: biochemical; assay type: biochemical
T1 construct: made in house

[2] = Metabolic stability in mouse liver S9 fraction; assay type: in vitro ADME
[3] = Metabolic stability in human liver S9 fraction; assay type: in vitro ADME
Plasma stability, mouse = assay type: in vitro ADME
MMP-1 = molecular target: T2, MMP-1 (Homo sapiens, UniProt P03956); assay: MMP-1 inhibition assay; assay type: biochemical; conditions: read-out: % inhibition MMP-1
T2 construct: purchased AnaSpec (Fremont, CA, USA)
T2 sequence (P03956 100-469): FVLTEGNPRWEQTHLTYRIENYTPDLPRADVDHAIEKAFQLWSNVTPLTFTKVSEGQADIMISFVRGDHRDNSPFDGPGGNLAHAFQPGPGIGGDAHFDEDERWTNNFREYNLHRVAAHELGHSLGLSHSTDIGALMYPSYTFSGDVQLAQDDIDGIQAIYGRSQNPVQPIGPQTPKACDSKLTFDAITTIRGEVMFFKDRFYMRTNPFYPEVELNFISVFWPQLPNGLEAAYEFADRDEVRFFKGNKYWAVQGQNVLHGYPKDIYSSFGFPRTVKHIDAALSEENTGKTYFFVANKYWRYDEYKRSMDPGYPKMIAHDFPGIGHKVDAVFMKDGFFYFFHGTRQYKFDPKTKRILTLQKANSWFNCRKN

MMP-3 = molecular target: T3, MMP-3 (Homo sapiens, UniProt P08254); assay: MMP-3 inhibition assay; assay type: biochemical; conditions: read-out: % inhibition MMP-3
T3 construct: purchased AnaSpec (Fremont, CA, USA)

TACE = molecular target: T4, TACE (Homo sapiens, UniProt P78536); assay: TACE inhibitor screening kit; assay type: biochemical; conditions: read-out: % inhibition TACE
T4 construct: purchased Sigma-Aldrich (Saint Louis, MO)

COX-1 = molecular target: T5, COX-1 (Ovis aries, UniProt P05979); assay: Fluorometric COX-1 inhibitor assay; assay type: biochemical, human
T5 construct: purchased Abcam (Cambridge, UK)
T5 sequence (P05979 25-600): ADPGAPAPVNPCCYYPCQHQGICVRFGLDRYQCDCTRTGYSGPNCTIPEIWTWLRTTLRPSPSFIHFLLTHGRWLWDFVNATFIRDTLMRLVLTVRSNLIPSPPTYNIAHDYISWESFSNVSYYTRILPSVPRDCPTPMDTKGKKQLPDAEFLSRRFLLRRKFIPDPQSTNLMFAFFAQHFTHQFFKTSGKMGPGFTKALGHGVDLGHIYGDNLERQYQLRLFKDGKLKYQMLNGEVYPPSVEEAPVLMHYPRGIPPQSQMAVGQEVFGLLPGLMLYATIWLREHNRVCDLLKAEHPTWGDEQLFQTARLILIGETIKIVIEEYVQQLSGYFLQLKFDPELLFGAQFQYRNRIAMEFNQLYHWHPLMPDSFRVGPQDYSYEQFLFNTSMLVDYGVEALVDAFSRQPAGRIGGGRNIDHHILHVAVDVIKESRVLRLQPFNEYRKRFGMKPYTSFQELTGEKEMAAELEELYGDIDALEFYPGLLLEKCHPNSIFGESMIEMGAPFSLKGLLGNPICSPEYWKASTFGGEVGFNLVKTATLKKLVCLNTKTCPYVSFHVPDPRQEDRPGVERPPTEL

ColH-PD = ColH-PD (Hathewaya histolytica, UniProt Q46085); assay: biochemical; assay type: biochemical, Clostridium histolyticum; conditions: read-out: % inhibition ColH-PD @1 µM
[4] = Microsomal stability, mouse liver microsomes; assay type: in vitro ADME; conditions: C57BL6, mouse, pooled liver microsomes
[5] = Microsomal stability, rat liver microsomes; assay type: in vitro ADME; conditions: Wistar, pooled liver microsomes
[6] = Microsomal stability, minipig liver microsomes; assay type: in vitro ADME; conditions: Göttingen, pooled liver microsomes
Plasma stability, rat = assay type: in vitro ADME; conditions: Wistar, pooled plasma, species profiling, read-out: Plasma T1/2 Rat (Wistar)
[7] = Plasma stability, minipig; assay type: in vitro ADME; conditions: Göttingen, pooled plasma, species profiling, read-out: Plasma T1/2 Minipig (Göttingen)
P. aeruginosa PA14 = assay: Bacterial growth inhibition assay; assay type: cell-based, Pseudomonas aeruginosa
Description: Bacterial growth inhibition assay. Assays regarding the determination of the MIC were
performed as described recently for P. aeruginosa PA14.58

in vivo = conditions: mice, nebulization 10 mg/kg; for Cmax / Tmax: 10 mg/kg
Description: Up to 5 compounds were dosed per cassette.
anesthetized using ketamine 100 mg/kg and xylazine 10 mg/kg intraperitoneally.
time point) were euthanized at t= 0.5, 2 and 5 h post administration.
10 mg/kg using a Kent Scientific Aeroneb® nebulizer.
Blood was collected from the heart.
blood was collected into Eppendorf tubes coated with 0.5 M EDTA and immediately spun down
at 13,000 rpm for 10 min at 4 °C. The plasma was transferred into a new Eppendorf tube and then
stored at –80 °C until analysis. Then, a broncheoalveolar lavage was conducted using isotonic
sodium chloride solut ion. Lung, kidneys, and liver were aseptically removed and homogenized
using a Polytron tissue homogenizer (Kinematica) in isotonic sodium chloride solution.
samples were aliquoted into Eppendorf tubes and stored at –80 °C until analysis.
spontaneous urine was also collected. Bioanalytical sample preparation.
an AB Sciex QTrap6500+ mass spectrometer. First, a calibration curve was prepared by spiking
Caffeine was used as an internal standard.
min at 2,000 rpm on an Eppendorf MixMate® vortex mixer.
caffeine as internal standard for 5 min at 2000 rpm on an Eppendorf MixMate® vortex mixer.
Then samples (plasma and urine) were spun down at 1 3,000 rpm for 5 min. Supernatants were transferred to standard HPLC -glass vials.
tissue sample (calibration samples, QCs or PK samples) were extracted with 50 µL of methanol
and 1 µL caffeine (concent ration 1 µg/mL in methanol) for 5 min at 800 rpm on an Eppendorf MixMate® vortex mixer. Then samples (BALF, liver, kidney, lung) were spun down at 4,000 rpm
for 40 min at 4 °C. Supernatants were transferred to 96well V -bottom plates (Greiner).
conditions were as follows: column: Agilent Zorbax Eclipse Plus C18, 50x2.1 mm, 1.8 µm;
temperature: 30 °C; injection volume: 5 µL; flow rate: 700 µL/min; solvent A: water + 0.1%
Urea was used to enable calculation of
epithelial lining fluid (ELF) concentrations. Peak areas of each sample and of the corresponding
internal standard were analyzed using MultiQuant 3.0 software (AB Sciex).
respective sample were normalized to the internal standard peak area.
compound were used for qualification.
curve. The accuracy of the calibration curve was determined using QCs independently prepared
on different days. PK parameters were determined using a non-compartmental analysis with

LasB [8] = assay type: in vivo, mouse; conditions: compared to the vehicle group; 4b 10 mg/kg TID, levofloxacin 25 mg/kg
3D lung organoids = assay: Lung organoid assay; assay type: cell-based, human
HepG2 = conditions: human, 48 h, 100 µM
Description: Culturing of HepG2, A549 and HEK293 cells. The human hepatocellular carcinoma cell line HepG2, the lung adenocarcinoma cell line A549 and Human Embryonic (HEK) 293 cells were cultured in Dulbecco's Modified Eagle Medium (DMEM), containing 10% Fetal Bovine Serum
(FBS) and 1% penicillin-streptomycin mixture. Cells were maintained according to standard cell
Cytotoxicity assay. An MTT-based assay was employed to evaluate the viability of HepG2,
HEK293 and A549 cells after challenge with selected LasB inhibitors and performed as described

zebrafish embryos = assay: Zebrafish embryo toxicity
Description: Zebrafish embryo toxicity. The experiment was performed according to a procedure described
in the literature55 with minor modifications using zebrafish embryos of the AB wild-type line at 1
day post fertilization (dpf).
Zebrafish embryo toxicity.

[9] = tested on: Galleria mellonella larvae infected with wt PA14; assay: G. mellonella infection model

T1 sequence (Q02RJ6 198-498): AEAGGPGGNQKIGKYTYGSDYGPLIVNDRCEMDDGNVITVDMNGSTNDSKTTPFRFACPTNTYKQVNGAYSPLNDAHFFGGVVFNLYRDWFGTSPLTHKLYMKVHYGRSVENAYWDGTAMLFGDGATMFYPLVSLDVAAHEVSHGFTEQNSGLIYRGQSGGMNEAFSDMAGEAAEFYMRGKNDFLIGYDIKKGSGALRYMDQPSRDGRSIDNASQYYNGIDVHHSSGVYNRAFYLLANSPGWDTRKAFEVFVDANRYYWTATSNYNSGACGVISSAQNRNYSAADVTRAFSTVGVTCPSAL
T3 sequence (P08254 100-477): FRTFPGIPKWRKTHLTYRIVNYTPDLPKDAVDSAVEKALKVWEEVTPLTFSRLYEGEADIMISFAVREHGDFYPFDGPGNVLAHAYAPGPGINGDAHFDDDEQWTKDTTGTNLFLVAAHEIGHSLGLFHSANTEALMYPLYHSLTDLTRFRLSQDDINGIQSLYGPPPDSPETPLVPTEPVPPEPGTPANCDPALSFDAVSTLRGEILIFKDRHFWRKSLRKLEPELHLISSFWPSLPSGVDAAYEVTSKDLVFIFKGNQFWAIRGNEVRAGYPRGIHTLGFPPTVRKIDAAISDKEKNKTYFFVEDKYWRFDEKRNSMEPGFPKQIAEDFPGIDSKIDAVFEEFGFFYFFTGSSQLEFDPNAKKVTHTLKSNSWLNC
T4 sequence (P78536 215-824): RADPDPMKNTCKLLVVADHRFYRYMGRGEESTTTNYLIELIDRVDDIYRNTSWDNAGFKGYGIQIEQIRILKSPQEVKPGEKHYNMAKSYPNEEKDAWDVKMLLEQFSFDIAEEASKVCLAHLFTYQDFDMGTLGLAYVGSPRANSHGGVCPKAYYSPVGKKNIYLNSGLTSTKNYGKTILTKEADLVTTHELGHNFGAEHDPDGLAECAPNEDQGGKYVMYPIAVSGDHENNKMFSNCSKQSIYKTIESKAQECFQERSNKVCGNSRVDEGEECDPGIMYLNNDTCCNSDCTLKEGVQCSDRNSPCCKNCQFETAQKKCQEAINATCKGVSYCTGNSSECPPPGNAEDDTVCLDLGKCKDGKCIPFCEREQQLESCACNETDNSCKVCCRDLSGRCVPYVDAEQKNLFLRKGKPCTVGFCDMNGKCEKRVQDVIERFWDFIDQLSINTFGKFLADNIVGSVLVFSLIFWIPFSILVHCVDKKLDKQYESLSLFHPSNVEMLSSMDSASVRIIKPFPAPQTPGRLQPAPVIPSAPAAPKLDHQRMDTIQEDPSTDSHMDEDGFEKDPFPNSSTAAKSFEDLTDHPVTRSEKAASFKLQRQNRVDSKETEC
Chain of ColH-PD (Q46085 331-721 limits assumed): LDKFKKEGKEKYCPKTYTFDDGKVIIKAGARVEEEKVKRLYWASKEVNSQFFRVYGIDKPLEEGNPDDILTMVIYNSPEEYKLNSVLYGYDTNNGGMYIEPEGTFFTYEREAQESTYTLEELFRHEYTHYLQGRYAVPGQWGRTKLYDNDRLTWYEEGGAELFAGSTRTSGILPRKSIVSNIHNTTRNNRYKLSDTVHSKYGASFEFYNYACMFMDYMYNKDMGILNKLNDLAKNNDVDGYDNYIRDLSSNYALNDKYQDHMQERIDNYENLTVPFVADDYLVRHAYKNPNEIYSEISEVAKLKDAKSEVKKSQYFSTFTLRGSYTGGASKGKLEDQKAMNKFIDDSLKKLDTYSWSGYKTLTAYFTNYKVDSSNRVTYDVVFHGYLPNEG

## CC(C)CC(C(=O)Nc1ccc(C(F)(F)F)cc1)P(=O)(O)O (centres unmarked) [Compound 4b]
LasB [1]; FRET-based assay, read-out: LasB IC50
  IC50: 26.3 ± 7.6 nM
LasB [1]; LasB IC50, FRET-based assay
  IC50: ~25 nM
LasB [1]; LasB IC50 in presence of 1% pulmonary surfactant, 1% pulmonary surfactant
  IC50: 76 ± 23 nM
[2]
  microsomal CLint at 1 μM: < 5.8 µL/min/mg
[3]
  microsomal CLint at 1 μM: < 5.8 µL/min/mg
Plasma stability, mouse; C57BL6, mouse, pooled plasma, species profiling, read-out: Plasma T1/2 Mouse (C57BL6)
  half-life: > 4 h
Plasma stability, mouse; mouse plasma, read-out: Plasma T1/2 Mouse
  half-life at 1 μM: > 2.5 h
MMP-1
  inhibition at 100 µM: 21 ± 1%
MMP-3
  inhibition at 100 µM: 29 ± 8%
TACE
  inhibition at 100 µM: < 10%
COX-1
  inhibition at 100 µM: < 10%
ColH-PD
  inhibition at 1 µM: 14 ± 8%
[4]
  microsomal CLint: < 11.6 µL/min/mg
[5]
  microsomal CLint: < 11.6 µL/min/mg
[6]
  microsomal CLint: < 11.6 µL/min/mg
Plasma stability, rat
  half-life: > 4 h
[7]
  half-life: > 4 h
P. aeruginosa PA14; Pseudomonas aeruginosa, PA14, 100 µM compound concentration, read-out: Percent (%) growth inhibition of P. aeruginosa PA14
  inhibition at 100 µM: < 10%
P. aeruginosa PA14; up to 100 μM
  antibacterial activity: do not possess any antibacterial activity
In vivo; male, CD-1, mouse, ELF/plasma, inhaled, read-out: ELF/plasma ratio
  Kp: 6.12
In vivo; male, CD-1, mouse, epithelial lining fluid (ELF), inhaled or intranasal, read-out: Cmax ELF
  Cmax: 19900 ± 14000 ng/mL
In vivo; male, CD-1, mouse, epithelial lining fluid (ELF), inhaled or intranasal, read-out: Tmax ELF
  Tmax: 0.58 ± 0.4 h
In vivo; male, CD-1, mouse, epithelial lining fluid (ELF), inhaled or intranasal, read-out: AUC 0-t ELF
  AUC(0-t): 49700 ± 16200 ng·h/mL
In vivo; male, CD-1, mouse, inhaled or intranasal, plasma
  CL/F: 20.7 ± 2 mL/min/kg
In vivo; male, CD-1, mouse, lung, inhaled or intranasal, read-out: Tmax lung
  Tmax: 0.33 ± 0.1 h
In vivo; male, CD-1, mouse, plasma, inhaled or intranasal, read-out: Cmax plasma
  Cmax: 633 ± 59 ng/mL
In vivo; male, CD-1, mouse, plasma, inhaled or intranasal, read-out: Tmax plasma
  Tmax: 4 ± 3.5 h
In vivo; male, CD-1, mouse, plasma, inhaled or intranasal
  MRT: 6.8 ± 0.3 h
In vivo; male, CD-1, mouse, plasma, inhaled or intranasal, read-out: AUC 0-t plasma
  AUC(0-t): 8130 ng·h/mL
In vivo; male, CD-1, mouse, plasma, inhaled or intranasal, read-out: t1/2 plasma (converted)
  half-life: 4 ± 0.3 h
In vivo
  AUC 0-t lung: 249.0 ± 72.9 ng·h/g
  Cmax lung: 78.4 ± 15.9 ng/g
LasB [8]
  LasB protein levels in blood: strong reduction
3D lung organoids; 5% PA14 csn, 48 h, MTT
  viability of lung organoids challenged with 5% PA14 csn: improved in a dose-dependent manner
3D lung organoids; concentrations tested up to 100 μM
  toxic effects on nontreated lung organoids: did not have significant toxic effects
HepG2
  % growth inhibition HepG2: 18 ± 11%
Zebrafish embryos; 12.5 µM
  Survival rate: 100%
Zebrafish embryos; 25 µM
  Survival rate: 100%
Zebrafish embryos; 25 µM, 5 dpf
  Screening observations: 1 nsb
Zebrafish embryos; 50 µM
  Survival rate: 100%
Zebrafish embryos; 50 µM, 5 dpf
  Screening observations: 2 nsb
Zebrafish embryos; 100 μM
  Survival rate: 100%
Zebrafish embryos; 100 µM, 3 dpf
  Screening observations: 1 edema
Zebrafish embryos; 100 µM, 4 dpf
  Screening observations: 1 edema
Zebrafish embryos; 100 µM, 5 dpf
  Screening observations: 1 nsb, 1 edema
[9]; 1 nmol 4b, 10.7 nmol tobramycin, or both, 17% in the wild type
  survival of larvae infected with wt PA14: 33%
[9]; PBS with 4b, tobramycin or combination of both
  survival in the PBS treated groups (not infected): 100%
